Tested on: multiple myeloma patients
Assay: Survival analysis (PFS and OS) of multiple myeloma patients by molecular cluster, HOVON-65/GMMG-HD4 phase III trial, PAD vs VAD
Assay type: in vivo, human
Method: Survival analysis was performed on a group of 301 MM patients, treated with Bortezomib (treated with PAD, a combination of bortezomib, adriamycin, and dexamethasone)) or conventional therapy (treated with VAD, a combination of vincristine, adriamycin, and dexamethasone). The patient group was stratified into ten clusters (Table 1).
A total number of 833 patients were included in a large prospective, randomized, phase III trial (HOVON-65/GMMG-HD4). Patients were randomly assigned to three cycles of induction treatment with vincristine, doxorubicin, and dexamethasone (VAD), or Bortezomib, doxorubicin, and dexamethasone (PAD). Both groups received high-dose melphalan with autologous stem-cell rescue followed by maintenance treatment with thalidomide (group assigned to VAD) or Bortezomib (group assigned to PAD) for 2 years (Sonneveld et al., J. Clin. Oncol. Vol. 30, 24:2946-2955, 2012).
The gene expression dataset GSE19784 was used, derived from patients included in the HOVON-65/GMMG-HD4 trial (Broyl et al., Blood 2010 116:2543-2553). A total number of 320 patients were included in the molecular classification and follow-up data were available for 319 patients. Clusters with less than ten patients were not included in this study, the total number of patients was, therefore, 301 (Table 1). Progression-free survival (PFS) was calculated from randomization until progression, relapse or death, whichever came first. Patients who received a non-myeloablative allogeneic stem cell transplantation (AlloSCT) were censored at the date of AlloSCT. Overall survival (OS) was measured from randomization until death from any cause. Patients alive at the date of last contact were censored. The median follow-up was 41 months. Survival analysis was performed using the SPSS software. Kaplan
Meier analysis was performed using the log rank test to assess for significance in survival time between clusters.

SMILES: CC(C)C[C@H](NC(=O)[C@H](Cc1ccccc1)NC(=O)c1cnccn1)B(O)O [Bortezomib]
- median PFS (CD-2 cluster): 32 months
- difference in median PFS, conventional vs Bortezomib (CTA cluster): no difference
- median OS (MF cluster): 54 months
- median PFS (MF cluster): 27 months
- PFS longer than in conventional treatment group (MS cluster): 6 months
- median OS (MS cluster): > 41 months
- median PFS (Myeloid cluster): 32 months
- median PFS (NF-κB cluster): 32 months
- median OS (PR cluster): 22 months
- median PFS (PR cluster): 19 months
- difference in median PFS, conventional vs Bortezomib (hyperdiploid cluster): no difference
